Laboratory results published in patent US6437185B1, “Quaternary ammonium compounds and process for preparing and using same” (Finetex, Inc., priority 1999, dated 2002).

How the values were obtained:
[1] = tested on: Epiocular samples (Ocular Tissue model); conditions: literature grouping, Kay and Calandra 1962; cited from earlier work
EpiDerm (Skin model) = conditions: groupings used to assign irritancy from ET-50; cited from earlier work
[2] = tested on: Epiocular samples (Ocular Tissue model); assay: In-vitro Mat Tek ocular irritation protocol (Epiocular, Ocular Tissue model); assay type: cell-based; conditions: for Ocular Results/Classification: tested at 3.0% active
Description: Both products were tested at 3.0% active for dermal and ocular irritation by in-vitro Mat Tek Protocols (Skin model and Ocular Tissue model).
Construction of a Dose Response Curve: The extractant solution within each well was pipetted up and down several times to insure that each is well mixed. 200 microliters of each of the mixed extraction solutions was then pipetted into separate wells of a 96 well microtiter plate. A Dynatech MR 4000 Automatic Microplate Reader was used to determine the optical density of each extract at 570 nm. With the absorbance of a negative control defined as 100%, the percent absorbencies of the articles were determined (% viability=100×(OD [article]/OD [negative control]). The calculated percentages directly correlate with the cell metabolism in the Epiocular samples.
Using a semi-log scale, the percent viability (liner “y” axis) was plotted versus the dosing time (log “x” axis). By interpolation, the time at which the viability has dropped to 50% was determined.

## CCCCCCCCCCCCOS(=O)(=O)[O-].[Na+] [2% Sodium Dodecyl Sulfate, Sodium Dodecyl Sulfate]
[1]
  Irritancy Classification (example substances of the Draize score / Epiocular ET-50 groups): Mild (<20.5-9.67)
EpiDerm (Skin model)
  Expected In vivo Irritancy (example substances of the EpiDerm ET-50 groups): Moderate (0.5-4)

## O=[N+]([O-])O [Conc. Nitric Acid, Nitric Acid]
EpiDerm (Skin model)
  Expected In vivo Irritancy (example substances of the EpiDerm ET-50 groups): Severe, probably corrosive (<0.5)

## N′,N″,N′″-Triethyl, N′,N′,N′″,N′″-Tetramethyl, N″-[(Trioxypropyl)-ω-hydroxycetyl], dipropylene triammonium triethosulfate [FINQUAT ® CT-P]
[2]; 3.0% active, dermal and ocular irritation, in-vitro Mat Tek Protocols
  Mildness in toxicology studies (in words): milder than FINQUAT® CT
[2]; first table
  Ocular Results/Classification: Non-Irritancy (as in Peg 75 Lanolin)
[2]; second table with the same title
  Ocular Results/Classification: Non-Irritancy (as in Peg 75 Lanolin)
